Experiments:
[1] = tested on: axonal growth cones of rat P5 hippocampal neurons; test: Growth cone turning assay in an OMgp gradient, P5 hippocampal neurons; format: cell-based; settings: for growth cone turning response to a gradient of the protein: 5 μg/ml in the pipette
Text: Three major myelin-associated inhibitory factors, Nogo-66, MAG and OMgp, are known to bind the common NgR protein, and may utilize the same signal transduction pathway to inhibit axonal extension (Domeniconi et al., 2002; Fournier et al., 2001; Liu et al., 2002; Wang et al., 2002b). Therefore, whether β1-integrin also mediates growth cone responses to other myelin-associated inhibitors was next considered. […] Thus, β1-integrin appears to specifically mediate acute axonal growth cone turning induced by MAG, but not by OMgp.
(§1) Hippocampal neurons were isolated from embryonic and postnatal rats, or wild-type and NgR knockout mice (Zheng et al., 2005) as previously described (Song et al., 2002a; Song et al., 2002b). Similarly, cerebellar neurons were isolated from P5 rat cerebellum (Xiang et al., 2002). They were cultured on poly-L-lysine coated plates or coverslips as previously described (Song et al., 2002a; Song et al., 2002b). For biochemical analysis, embryonic day 18 (E18) neurons were treated with the agent AraC to eliminate dividing astrocytes and used at 5 days after plating as previously described (Song et al., 2002a; Song et al., 2002b). For growth cone turning assay, neurons were used between 2-3 days after plating. PI-PLC (1 or 2 units/ml) (Wang et al., 2002b), Ha2/5 (1 μg/ml) or echistatin (100 nM) (Gan et al., 1988) were added for 30 mins prior to and were present during the biochemical analysis or the growth cone turning assay.
Microscopic gradients of recombinant MAG (150 μg/ml in the pipette) and OMgp (5 μg/ml in the pipette) were produced as previously described (Lohof et al., 1992; Song et al., 1998; Xiang et al., 2002). Axons were identified as the longest neurite in these cultures at the stage 2-3 of hippocampal neurons as previously described (Dotti et al., 1988). Growth cone assays were carried out at room temperature for 30 min. […] Statistical significance was assessed using ANOVA and accepted if p<0.01.

[2] = tested on: axonal growth cones of P5 rat hippocampal neurons; test: Growth cone turning assay in a MAG gradient, P5 hippocampal neurons; format: cell-based
Procedure: To examine the functional role of β1-integrin in transducing MAG signaling in neuronal growth cones, growth cone turning assays were performed using rat hippocampal neurons. Growth cone turning assays are well-known and described in the art, for example by Song et al., 1998; Xiang et al., 2002; see also Experimental Procedures.
as §1, with “PI-PLC (1 or 2 units/ml) (Wang et al., 2002b), Ha2/5 (1 μg/ml) or echistatin (100 nM) (Gan et al., 1988) were added for 30 mins prior to and were present during the biochemical analysis or the growth cone turning assay.” left out
Microscopic gradients of recombinant MAG (150 μg/ml in the pipette) and OMgp (5 μg/ml in the pipette) were produced as previously described (Lohof et al., 1992; Song et al., 1998; Xiang et al., 2002). […] Statistical significance was assessed using ANOVA and accepted if p<0.01. […]

β1-integrin = biological target: T1, β1-integrin (Rattus norvegicus, UniProt P49134); test: Co-immunoprecipitation of MAG-Fc and β1-integrin in primary hippocampal neurons; format: binding; settings: echistatin 100 nM; primary hippocampal cultures treated with MAG-Fc
T1 construct: endogenous in cells; host or cells: primary hippocampal neurons (E18, 5 days after plating)
Procedure: To determine whether β1-integrin interacts with myelin associated glycoprotein (MAG), cultured primary hippocampal neurons were treated with recombinant MAG consisting of the MAG extracellular domain fused to human Fc (MAG-Fc; see Experimental Procedures), a fusion protein previously shown to potently regulate neurite outgrowth and induce growth cone turning responses (Domeniconi et al., 2002; Henley et al., 2004; Liu et al., 2002; McKerracher et al., 1994; Shim et al., 2005; Song et al., 1998).
as §1, with “PI-PLC (1 or 2 units/ml) (Wang et al., 2002b), Ha2/5 (1 μg/ml) or echistatin (100 nM) (Gan et al., 1988) were added for 30 mins prior to and were present during the biochemical analysis or the growth cone turning assay.” left out

FAK = test: MAG-induced FAK tyrosine phosphorylation in hippocampal neurons (IP anti-FAK, immunoblot); format: cell-based, rat; settings: echistatin 100 nM
Procedure: The question was next asked how β1-integrin signaling transduces MAG-induced neuronal responses. Focal adhesion kinase (FAK) is a major mediator of integrin-dependent signaling in many contexts, including cell migration and axon guidance (Nakamoto et al., 2004; Nikolopoulos and Gianotti, 2005; Xie and Tsai, 2004). […] MAG-induced FAK phosphorylation was abolished in the presence of echistatin (100 nM) or Ha2/5 ([…]) (FIG. 6B). […] The specific FAK tyrosine residues that become phosphorylated upon MAG stimulation in hippocampal neurons were next examined. […] Similar β1-integrin-dependent FAK phosphorylation of these tyrosine residues was also found in embryonic cortical neurons treated with MAG (data not shown).
as §1, with “For growth cone turning assay, neurons were used between 2-3 days after plating. PI-PLC (1 or 2 units/ml) (Wang et al., 2002b), Ha2/5 (1 μg/ml) or echistatin (100 nM) (Gan et al., 1988) were added for 30 mins prior to and were present during the biochemical analysis or the growth cone turning assay.” left out

T1 sequence (P49134 21-799): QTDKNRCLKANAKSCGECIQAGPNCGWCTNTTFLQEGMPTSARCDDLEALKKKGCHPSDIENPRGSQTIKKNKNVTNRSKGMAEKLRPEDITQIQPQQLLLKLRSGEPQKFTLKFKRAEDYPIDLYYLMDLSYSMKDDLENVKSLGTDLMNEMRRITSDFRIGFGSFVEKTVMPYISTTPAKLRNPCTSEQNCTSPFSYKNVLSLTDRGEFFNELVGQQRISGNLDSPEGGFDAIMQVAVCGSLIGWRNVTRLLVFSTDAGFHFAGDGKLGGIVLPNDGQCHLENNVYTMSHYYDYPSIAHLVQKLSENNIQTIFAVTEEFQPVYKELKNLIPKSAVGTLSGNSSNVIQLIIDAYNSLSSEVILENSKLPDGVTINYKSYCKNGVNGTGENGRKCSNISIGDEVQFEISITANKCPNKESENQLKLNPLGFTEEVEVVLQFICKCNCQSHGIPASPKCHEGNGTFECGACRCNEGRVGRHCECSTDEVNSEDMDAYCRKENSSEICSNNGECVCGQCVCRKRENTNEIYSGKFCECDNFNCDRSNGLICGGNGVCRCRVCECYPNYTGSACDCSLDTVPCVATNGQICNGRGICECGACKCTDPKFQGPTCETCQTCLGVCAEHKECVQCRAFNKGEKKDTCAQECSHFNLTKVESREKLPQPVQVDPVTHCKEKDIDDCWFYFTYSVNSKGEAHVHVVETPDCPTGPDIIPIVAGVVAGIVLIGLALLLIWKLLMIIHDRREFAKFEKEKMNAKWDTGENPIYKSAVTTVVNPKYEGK

echistatin
effect on OMgp-induced growth cone repulsion ([1]; echistatin 100 nM, OMgp 5 μg/ml in the pipette): still exhibited significant repulsion | effect on MAG-induced growth cone repulsion ([2]; 100 nM echistatin, MAG 150 μg/ml in the pipette): completely abolished | association between MAG and β1-integrin (co-immunoprecipitation) (β1-integrin): attenuated | effect on MAG-induced FAK phosphorylation (FAK): abolished

B1: OMgp: recombinant oligodendrocyte-myelin glycoprotein (protein, UniProt P23515 25-417, looked up)
Oligodendrocyte-myelin …: ICPLQCICTERHRHVDCSGRNLSTLPSGLQENIIHLNLSYNHFTDLHNQLTQYTNLRTLDISNNRLESLPAHLPRSLWNMSAANNNIKLLDKSDTAYQWNLKYLDVSKNMLEKVVLIKNTLRSLEVLNLSSNKLWTVPTNMPSKLHIVDLSNNSLTQILPGTLINLTNLTHLYLHNNKFTFIPDQSFDQLFQLQEITLYNNRWSCDHKQNITYLLKWMMETKAHVIGTPCSTQISSLKEHNMYPTPSGFTSSLFTVSGMQTVDTINSLSVVTQPKVTKIPKQYRTKETTFGATLSKDTTFTSTDKAFVPYPEDTSTETINSHEAAAATLTIHLQDGMVTNTSLTSSTKSSPTPMTLSITSGMPNNFSEMPQQSTTLNLWREETTTNVKTPLPS
growth cone turning response to a gradient of the protein [1]: significant repulsive turning responses

B2: heat-inactivated Omgp: heat-inactivated OMgp (protein, UniProt P23515 25-417, looked up)
Oligodendrocyte-myelin …: ICPLQCICTERHRHVDCSGRNLSTLPSGLQENIIHLNLSYNHFTDLHNQLTQYTNLRTLDISNNRLESLPAHLPRSLWNMSAANNNIKLLDKSDTAYQWNLKYLDVSKNMLEKVVLIKNTLRSLEVLNLSSNKLWTVPTNMPSKLHIVDLSNNSLTQILPGTLINLTNLTHLYLHNNKFTFIPDQSFDQLFQLQEITLYNNRWSCDHKQNITYLLKWMMETKAHVIGTPCSTQISSLKEHNMYPTPSGFTSSLFTVSGMQTVDTINSLSVVTQPKVTKIPKQYRTKETTFGATLSKDTTFTSTDKAFVPYPEDTSTETINSHEAAAATLTIHLQDGMVTNTSLTSSTKSSPTPMTLSITSGMPNNFSEMPQQSTTLNLWREETTTNVKTPLPS
modifications: heat-inactivated
growth cone turning response to a gradient of the protein [1]: not

B3: MAG-HI: heat-inactivated MAG (protein, UniProt P20916 20-626, looked up)
Myelin-associated glycoprotein: GHWGAWMPSSISAFEGTCVSIPCRFDFPDELRPAVVHGVWYFNSPYPKNYPPVVFKSRTQVVHESFQGRSRLLGDLGLRNCTLLLSNVSPELGGKYYFRGDLGGYNQYTFSEHSVLDIVNTPNIVVPPEVVAGTEVEVSCMVPDNCPELRPELSWLGHEGLGEPAVLGRLREDEGTWVQVSLLHFVPTREANGHRLGCQASFPNTTLQFEGYASMDVKYPPVIVEMNSSVEAIEGSHVSLLCGADSNPPPLLTWMRDGTVLREAVAESLLLELEEVTPAEDGVYACLAENAYGQDNRTVGLSVMYAPWKPTVNGTMVAVEGETVSILCSTQSNPDPILTIFKEKQILSTVIYESELQLELPAVSPEDDGEYWCVAENQYGQRATAFNLSVEFAPVLLLESHCAAARDTVQCLCVVKSNPEPSVAFELPSRNVTVNESEREFVYSERSGLVLTSILTLRGQAQAPPRVICTARNLYGAKSLELPFQGAHRLMWAKIGPVGAVVAFAILIAIVCYITQTRRKKNVTESPSFSAGDNPPVLFSSDFRISGAPEKYESERRLGSERRLLGLRGEPPELDLSYSHSDLGKRPTKDSYTLTEELAEYAEIRVK
modifications: heat-inactivated
growth cone turning response to a gradient of the protein ([2]; 150 μg/ml in the pipette, 30 min): no bias in the direction of axonal extension

From patent publication US20110002944A1, “Compositions and Methods to Promote Neural Cell Growth” (The Johns Hopkins University, priority 2006, published 2011)
